The values that follow come from patent US5571785A, “Biologically active compounds” (Farmitalia Carlo Erba S.r.l, priority 1993, dated 1996).

By LD50 is commonly meant the dose at which mortality reaches 50%.

The test system of data set [1] is M5076 murine reticulosarcoma. The data set can be described thus: Antitumour activity (and toxic deaths) against M5076 murine reticulosarcoma transplanted s.c. in mice. Particulars: for A.U.C. % inhib / T.C. % (median survival time treated/control × 100) / TOX (number of toxic deaths/total number of mice) / TDG (Tumor Growth Delay) (1 g) / LTS (Long Terms Survivors) / Tox (number of toxic deaths/total number of mice) / Tumor free (mice tumor free at the end of the experiments): days 5, 9, 15; for TDG (Tumor Growth Delay) (1 g): time to reach 1 g tumor weight. It is filed as in vivo, mouse (C75 B1/6 mice). The method, then:
Antitumour activity of compound A1 on M5076.
The antitumour activity of A1, described in Example 13, was tested as follows:
All drug solutions were prepared immediately before use. Treatment was administered i.v. in a volume of 10 ml/Kg body weight at days 5,9 and 15.
Anthracyclines were dissolved in sterile water and the concentration was checked spectrophotometrically.
Lyophylized polymers were dissolved in water to give a starting solution of 25 mg anthracycline equivalent/ml according to the reported concentration,further dilutions were performed in water.
M5076 murine reticulosarcoma was obtained by serial i.m. passage and transplanted (5×10^5 cells/mouse) s.c. in C75 B1/6 mice to evaluate the activity on primary tumor.
Tumor growth was assessed by. caliper measurement, and the tumor weight estimated according to Geran etal., see Cancer Chemother. Rep. 3, 1 (1972).
The antitumor activity was determined in time (days) to reach one gramm tumor weight and is reported as tumor growth delay (TGD).
The median increase in survival time (T/C%) was calculated using the following formula: [formula]
Toxicity was evaluated on the basis of body weight reduction and gross finding main of spleen and liver reduction.
Neurotoxicity is determined as number of mice with lack of motor function. […]
The antitumor activity was tested with the same treatment schedule for 4'-epidoxorubicin.HCl and compound A4.

Data set [2] can be described thus: Single-dose i.v. toxicity in healthy mice (LD10, LD50, therapeutic index). It is filed as in vivo, mouse. Particulars: mouse, in vivo, iv; single dose i.v., healthy C57 B1/F mice, Probit Analysis after 3-week recovery. The method, then: (§1) Toxicity was evaluated in healthy C57B1F mice, treatment i.v., with single doses of 4'-epidoxorubicin.HCl (13.2-16.15-19-20.6-25.2 and 33.2 mg/kg) and compound A4 (50-63-79-100-120-140 mg/kg)
(§2) For the determination of LD10 and LD= in healthy C57 B1F mice the Probit Analysis' after 3-week recovery was used.
(§3) The therapeutic index was calculated using the following formula: [formula]
(§4) Dose effective 50 is the dose causing 50% of tumor growth reduction.

Data set [3] has as its system healthy C57B1F mice. Described as above. It is filed as in vivo, mouse. Particulars: for LD10: Probit Analysis after 3-week recovery. The protocol: as §1, §2, §3, §4
The mark [4] stands for this setting: single dose i.v., healthy C57 B1/F mice.
Setting [5] is: Table 2, 4.0 mg/kg (anthracycline equivalent) i.v.
[6] abbreviates: Table 2, 5.0 mg/kg (anthracycline equivalent) i.v.
Setting [7] is: Table 2, 6.0 mg/kg (anthracycline equivalent) i.v.
Setting [8] is: Table 1, 30.0 mg/kg (anthracycline equivalent) i.v.
The mark [9] stands for this setting: Table 1, 40.0 mg/kg (anthracycline equivalent) i.v.
Where [10] appears, read: Table 1, 50.0 mg/kg (anthracycline equivalent) i.v.

Counter-ions that a name gives are not always drawn.

For `COc1cccc2c1C(=O)c1c(O)c3c(c(O)c1C2=O)C[C@@](O)(C(=O)CO)C[C@@H]3O[C@H]1C[C@H](N)[C@@H](O)[C@H](C)O1` [4'-epidoxorubicin.HCl, reference compound], in data set [1] (Table 3, 5 mg/kg), the A.U.C. % inhib was 51%, the “T.C. % (median survival time treated/control × 100)” value worked out at 105%, the “TOX (number of toxic deaths/total number of mice)” value is 0/9 and the “TDG (Tumor Growth Delay) (1 g)” value is 22 days. Further, in data set [1] (Table 3, 7.5 mg/kg), the A.U.C. % inhib was found to be 90%, the “T.C. % (median survival time treated/control × 100)” value came to 124%, the “TOX (number of toxic deaths/total number of mice)” value is 0/9 and the “TDG (Tumor Growth Delay) (1 g)” value was 34 days. In data set [1] (Table 3, 10 mg/kg), the A.U.C. % inhib turned out to be 99%, the “T.C. % (median survival time treated/control × 100)” value stood at 125%, the “TOX (number of toxic deaths/total number of mice)” value is listed as 0/9 and the “TDG (Tumor Growth Delay) (1 g)” value worked out at 40 days. In data set [2], this molecule came in with an LD50 at 504 h of 21.4 mg/kg. In data set [3] (setting [4]), this molecule had an LD10 of 16.4 mg/kg.
For the molecule `CC(=O)[C@]1(O)Cc2c(O)c3c(c(O)c2[C@@H](O[C@H]2C[C@H](N)[C@H](O)[C@H](C)O2)C1)C(=O)c1ccccc1C3=O` [4-demethoxydaunorubicin, reference compound], in data set [1] (Table 2, 1.0 mg/kg i.v.), the A.U.C. % inhib amounted to 47%, the “LTS (Long Terms Survivors)” value is 0/9, the “T.C. % (median survival time treated/control × 100)” value is listed as 142% and the “Tox (number of toxic deaths/total number of mice)” value is listed as 0/9. Also, in data set [1] (Table 2, 1.0 mg/kg i.v.), the “Tumor free (mice tumor free at the end of the experiments)” value (from here on “Tumor free”) is 0/9 and the “TDG (Tumor Growth Delay) (1 g)” value worked out at 19 days. Moreover, in data set [1] (Table 2, 1.5 mg/kg i.v.), the A.U.C. % inhib stood at 80%, the “LTS (Long Terms Survivors)” value is given as 0/9, the “T.C. % (median survival time treated/control × 100)” value came out at 160% and the “Tox (number of toxic deaths/total number of mice)” value is on record as 0/9. Also, in data set [1] (Table 2, 1.5 mg/kg i.v.), the “Tumor free” value is 0/9 and the “TDG (Tumor Growth Delay) (1 g)” value stood at 28 days.
As for “Copolymer of 3-methacryloylamino-2-hyvdroxypropane, 4-demethoxy, 3'-N-(methacrylgylcyl-L-phenylalanyl-L-leucyl glycyl)daunorubicin and N-methacryloylglycine [A3]”, in data set [1] (setting [5]), the A.U.C. % inhib amounted to 100%, the “LTS (Long Terms Survivors)” value is 0/10, the “T.C. % (median survival time treated/control × 100)” value is 198% and the “Tox (number of toxic deaths/total number of mice)” value is reported as 0/10. In data set [1] (setting [5]), the “Tumor free” value is reported as 0/10 and the “TDG (Tumor Growth Delay) (1 g)” value was determined as 49 days. For the same molecule, in data set [1] (setting [6]), the A.U.C. % inhib worked out at 100%, the “LTS (Long Terms Survivors)” value is 0/10, the “T.C. % (median survival time treated/control × 100)” value stood at 205% and the “Tox (number of toxic deaths/total number of mice)” value was 0/10. In addition, in data set [1] (setting [6]), the “Tumor free” value is reported as 0/10 and the “TDG (Tumor Growth Delay) (1 g)” value is on record as 50 days. In addition, in data set [1] (setting [7]), the A.U.C. % inhib was 100%, the “LTS (Long Terms Survivors)” value is 0/9, the “T.C. % (median survival time treated/control × 100)” value was 212% and the “Tox (number of toxic deaths/total number of mice)” value is given as 0/9. In data set [1] (setting [7]), the “Tumor free” value is on record as 0/9 and the “TDG (Tumor Growth Delay) (1 g)” value is on record as 55 days.
As for “Copolymer of 3-methacryloylamino-2-hydroxypropane, 4'-epi-3'-N-(methacryloylglycyl-L-phenylalanyl-L-leuculglycyl)doxorubicin and 1-N-(methacryloylgylcyl)-2-hydrocypropane [A4]”, in data set [1] (Table 3, 10 mg/kg), the A.U.C. % inhib came out at 100%, the “T.C. % (median survival time treated/control × 100)” value stood at 190%, the “TOX (number of toxic deaths/total number of mice)” value was 0/9 and the “TDG (Tumor Growth Delay) (1 g)” value was 62 days. In addition, in data set [1] (Table 3, 20 mg/kg), the A.U.C. % inhib is given as 100%, the “T.C. % (median survival time treated/control × 100)” value was determined as 219%, the “TOX (number of toxic deaths/total number of mice)” value was 0/9 and the “TDG (Tumor Growth Delay) (1 g)” value is on record as 62 days. Besides, in data set [1] (Table 3, 30 mg/kg), the A.U.C. % inhib is on record as 100%, the “T.C. % (median survival time treated/control × 100)” value stood at 229%, the “TOX (number of toxic deaths/total number of mice)” value is given as 0/9 and the “TDG (Tumor Growth Delay) (1 g)” value stood at 71 days. Moreover, the “Activity against early M5076 murine reticulosarcoma compared with free drug” value in data set [1] (versus 4'-epidoxorubicin.HCl, same treatment schedule) is given as “more active than free drug at all tested doses”. The therapeutic index in data set [3] (calculated by formula using dose effective 50 (dose causing 50% of tumor growth reduction)) is on record as 40. Besides, the toxicity entry in data set [3] (compared with 4'-epidoxorubicin.HCl) is listed as “low toxicity”. The same molecule gave an LD10 in data set [3] (setting [4]) of 128.0 mg/kg. In addition, the “LD50 (extrapolated value)” value in data set [3] (single dose i.v., healthy C57 B1/F mice, Probit Analysis, extrapolated value, 30240 min) is listed as 389 mg/kg.
As to “Copolymer of 3-methacryloylamino-2hydroxypropane, 3'-N-(methacryloylgly-L-phenlalanyl-L-leucylqlycyl)doxorubicin and N-methacryloylqlycine [A1]”, in data set [1] (setting [8]), the A.U.C. % inhib is on record as 100%, the “LTS (Long Terms Survivors)” value was 4/10, the “T.C. % (median survival time treated/control × 100)” value worked out at 378% and the “Tox (number of toxic deaths/total number of mice)” value was 0/10. In data set [1] (setting [8]), the “Tumor free” value was 3/10 and the “TDG (Tumor Growth Delay) (1 g)” value is listed as 80 days. Besides, in data set [1] (setting [9]), the A.U.C. % inhib is on record as 100%, the “LTS (Long Terms Survivors)” value is reported as 6/10, the “T.C. % (median survival time treated/control × 100)” value is recorded as over 369% and the “Tox (number of toxic deaths/total number of mice)” value is on record as 0/10. Also, the “Tumor free” value in data set [1] (setting [9]) is on record as 5/10. Further, in data set [1] (setting [10]), the A.U.C. % inhib came to 100%, the “LTS (Long Terms Survivors)” value is listed as 7/10, the “T.C. % (median survival time treated/control × 100)” value is reported as over 369% and the “Tumor free” value is recorded as 7/10. Also, the “Tox (number of toxic deaths/total number of mice)” value in data set [1] (Table 1, 50.0 mg/kg (anthracycline equivalent) i.v., footnote *Neurotoxicity) is listed as 2/10.
With `COc1cccc2c1C(=O)c1c(O)c3c(c(O)c1C2=O)C[C@@](O)(C(=O)CO)C[C@@H]3O[C@H]1C[C@H](N)[C@H](O)[C@H](C)O1` [doxorubicin, reference compound], in data set [1] (Table 1, 7.5 mg/kg i.v.), the A.U.C. % inhib is 90%, the “LTS (Long Terms Survivors)” value is given as 0/26, the “Tox (number of toxic deaths/total number of mice)” value is on record as 0/26 and the “Tumor free” value is 0/26. For the same molecule, the “TDG (Tumor Growth Delay) (1 g)” value in data set [1] (Table 1, 7.5 mg/kg i.v.) was found to be 35 days. In addition, in data set [1] (Table 1, 10.0 mg/kg i.v.), the A.U.C. % inhib turned out to be 100%, the “LTS (Long Terms Survivors)” value is given as 0/26, the “Tox (number of toxic deaths/total number of mice)” value is listed as 3/26 and the “Tumor free” value is reported as 0/26. Besides, the “TDG (Tumor Growth Delay) (1 g)” value in data set [1] (Table 1, 10.0 mg/kg i.v.) came out at 39 days.
